The term IC50 denotes the concentration that inhibits the measured activity by half.

From patent US20160016951A1 (Merck Patent GmbH, priority 2014, published 2016) come the findings set out here.

In the experiment the target is T1, CDK8 (CDK8/CycC) (Homo sapiens, UniProt P49336).
T1 construct: purchased Invitrogen PV4402
T1 sequence (P49336 whole entry): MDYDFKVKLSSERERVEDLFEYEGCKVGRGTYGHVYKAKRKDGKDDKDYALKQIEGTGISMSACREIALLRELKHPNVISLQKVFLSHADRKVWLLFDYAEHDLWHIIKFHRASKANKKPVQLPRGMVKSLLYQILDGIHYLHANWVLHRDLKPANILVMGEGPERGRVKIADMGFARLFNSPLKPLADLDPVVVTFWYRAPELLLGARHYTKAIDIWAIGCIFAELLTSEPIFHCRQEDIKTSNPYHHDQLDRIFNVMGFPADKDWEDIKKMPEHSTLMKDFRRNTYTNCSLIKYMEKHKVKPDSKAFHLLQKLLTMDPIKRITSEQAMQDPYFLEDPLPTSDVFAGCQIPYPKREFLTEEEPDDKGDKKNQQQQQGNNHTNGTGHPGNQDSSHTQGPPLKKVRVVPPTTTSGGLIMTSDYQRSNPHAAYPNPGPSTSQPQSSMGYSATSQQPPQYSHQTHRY
T1 sequence (P24863 whole entry partner): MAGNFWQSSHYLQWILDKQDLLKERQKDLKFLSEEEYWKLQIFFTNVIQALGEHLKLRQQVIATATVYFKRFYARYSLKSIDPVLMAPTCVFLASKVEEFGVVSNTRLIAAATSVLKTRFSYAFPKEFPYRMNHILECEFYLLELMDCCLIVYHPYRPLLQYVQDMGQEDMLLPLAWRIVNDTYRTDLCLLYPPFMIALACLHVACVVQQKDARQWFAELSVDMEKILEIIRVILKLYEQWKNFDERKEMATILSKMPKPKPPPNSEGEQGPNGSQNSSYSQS
Put plainly: FRET based Lanthascreen binding competition assay. To be noted: 5 nM CDK8/CycC, 10 nM Alexa647-Tracer, 1% DMSO, 60 min at RT; read-out: IC50 CDK8 binding. In outline:
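CDK8 co-expressed with CycC and labelled through biotinylated anti-His antibody and streptavidin-Eu was preincubated with compound for 20 min at RT. An Alexa647 ATP-competitive probe was then added for 60 min at RT in the dark. Probe displacement was read as loss of TR-FRET (excitation 340 nm, emission 650 nm).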
As for `CN1C(=O)CCc2cc(-c3cnc(N)c4ccc(C(=O)N5CC(F)(F)C5)cc34)ccc21` [Compound 172, 6-[1-Amino-6-(3,3-difluoro-azetidine-1-carbonyl)-isoquinolin-4-yl]-1-methyl-3,4-dihydro-1H-quinolin-2-one], the IC50 fell in the range of 101 to 500 nM. The figure for `COC1CN(C(=O)c2ccc3c(N)ncc(-c4ccc5c(c4)N(C)C(=O)C5)c3c2)C1` [Compound 173, 6-[1-Amino-6-(3-methoxy-azetidine-1-carbonyl)-isoquinolin-4-yl]-1-methyl-1,3-dihydro-indol-2-one] is 10 to 100 nM. Regarding `Cc1nc(-c2ccc(-c3cncc4ccc(C(=O)N5CC(F)(F)C5)cc34)cc2)cn1C` [Compound 175, (3,3-Difluoro-azetidin-1-yl)-{4-[4-(1,2-dimethyl-1H-imidazol-4-yl)-phenyl]-isoquinolin-6-yl}-methanone], the IC50 was in the range of 10 to 100 nM. `Cc1nc(-c2ccc(-c3cnc(N)c4ccc(C(=O)N5CC(F)(F)C5)cc34)cc2)cn1C` [Compound 176, {1-Amino-4-[4-(1,2-dimethyl-1H-imidazol-4-yl)-phenyl]-isoquinolin-6-yl}-(3,3-difluoro-azetidin-1-yl)-methanone]: the IC50 was in the range of 10 to 100 nM.

Consider `COC1CN(C(=O)c2ccc3c(N)ncc(-c4ccc5c(c4)CC(=O)N5C)c3c2)C1` [Compound 177, 5-[1-Amino-6-(3-methoxy-azetidine-1-carbonyl)-isoquinolin-4-yl]-1-methyl-1,3-dihydro-indol-2-one], for which the IC50 was 10 to 100 nM. Consider `COC1CN(C(=O)c2ccc3c(N)ncc(-c4ccc5c(c4)CCC(=O)N5C)c3c2)C1` [Compound 178, 6-(1-amino-6-(3-methoxyazetidine-1-carbonyl)isoquinolin-4-yl)-1-methyl-3,4-dihydroquinolin-2(1H)-one], for which the IC50 is 101 to 500 nM. The figure for `Cn1cc(-c2ccc(-c3cncc4ccc(C(=O)N5CC(C)(F)C5)nc34)cc2)cn1` [Compound 180, (3-fluoro-3-methylazetidin-1-yl)(8-(4-(1-methyl-1H-pyrazol-4-yl)phenyl)-1,6-naphthyridin-2-yl)methanone] is under 10 nM. Take `Cn1cc(-c2ccc(-c3cncc4ccc(C(=O)N5CCC5)cc34)cc2)cn1` [Compound 181, azetidin-1-yl(4-(4-(1-methyl-1H-pyrazol-4-yl)phenyl)isoquinolin-6-yl)methanone]: the IC50 is under 10 nM. To `COC1(C)CN(C(=O)c2ccc3cncc(-c4ccc(-c5cnn(C)c5)cc4)c3c2)C1` [Compound 185] belongs 10 to 100 nM. For the compound `Cn1cc(-c2ccc(-c3cncc4ccc(C(=O)N5CC(C)(F)C5)cc34)cc2)cn1` [Compound 186, (3-fluoro-3-methylazetidin-1-yl)(4-(4-(1-methyl-1H-pyrazol-4-yl)phenyl)isoquinolin-6-yl)methanone], the IC50 fell in the range of 10 to 100 nM. As to `Cn1cc(-c2ccc(-c3cncc4ccc(S(C)(=O)=O)cc34)cc2)cn1` [Compound 189, 6-Methanesulfonyl-4-[4-(1-methyl-1H-pyrazol-4-yl)-phenyl]-isoquinoline], the IC50 was 10 to 100 nM.

For the compound `Cn1cc(-c2ccc(-c3cncc4ccc(S(C)(=N)=O)cc34)cc2)cn1` (centres unmarked) [Compound 190, 6-[imino(methane)sulfinyl]-4-[4-(1-methyl-1H-pyrazol-4-yl)phenyl]isoquinoline], the IC50 is 10 to 100 nM. As to `O=C(c1ccc2cncc(-c3ccc4c(c3)CS(=O)(=O)N4)c2c1)N1CCC1` [Compound 192, azetidin-1-yl(4-(2,2-dioxido-1,3-dihydrobenzo[c]isothiazol-5-yl)isoquinolin-6-yl)methanone], the IC50 was under 10 nM. `N#Cc1ccc2cncc(-c3ccc4c(c3)CS(=O)(=O)N4)c2c1` [Compound 193, 4-(2,2-dioxido-1,3-dihydrobenzo[c]isothiazol-5-yl)isoquinoline-6-carbonitrile]: the IC50 lay within 10 to 100 nM. `Nc1ncc(-c2ccc3c(c2)CS(=O)(=O)N3)c2cc(C(=O)N3CCC3)ccc12` [Compound 194, (1-amino-4-(2,2-dioxido-1,3-dihydrobenzo[c]isothiazol-5-yl)isoquinolin-6-yl)(azetidin-1-yl)methanone]: the half-maximal inhibitory concentration (IC50) is under 10 nM. On to `Cn1cc(-c2ccc(-c3cncc4ccc(C(=O)N5CCC(F)(F)C5)cc34)cc2)cn1` [Compound 195, (3,3-difluoropyrrolidin-1-yl)(4-(4-(1-methyl-1H-pyrazol-4-yl)phenyl)isoquinolin-6-yl)methanone], for which the IC50 fell in the range of 10 to 100 nM. In the case of `Cn1cc(-c2ccc(-c3cnc(N)c4ccc(C(=O)N5CCC(F)(F)C5)cc34)cc2)cn1` [Compound 196, (1-amino-4-(4-(1-methyl-1H-pyrazol-4-yl)phenyl)isoquinolin-6-yl)(3,3-difluoropyrrolidin-1-yl)methanone], the IC50 was 10 to 100 nM.
